ChEMBL document CHEMBL4325880, “Design, synthesis and biological evaluation of novel zanamivir derivatives as potent neuraminidase inhibitors” (Bioorg Med Chem Lett, 2018)

Key:
Influenza A virus = assay: Antiviral activity against Influenza A virus (A/WSN/1933(H1N1)) infected in MDCK cells assessed as reduction in virus-induced cytopathic effect measured everyday; format: functional, organism-based
[1] = Inhibition of Clostridium neuraminidase preincubated for 2 mins followed by neuraminidase fluorescent addition and measured after 30 mins by fluorescence assay
[2] = Selectivity index, ratio of CC50 for MDCK cells to IC50 for Influenza A virus (A/WSN/1933(H1N1)); format: toxicity; details: dog, read-out: Ratio CC50/IC50
[3] = Cytotoxicity against MDCK cells assessed as reduction in cell viability after 72 hrs by CellTiter-Glo assay; format: cell-based, Canis lupus familiaris; details: dog

| SMILES | IC50 (Influenza A virus; read-out: pIC50 (converted)) | further results |
| --- | --- | --- |
| CC(=O)N[C@H]1[C@H]([C@H](O)[C@H](O)CO)OC(C(=O)O)=C[C@@H]1NC(=N)NC(=O)CSc1ccc2ccccc2c1 | 20.1 nM | – |
| COc1cc(CCC(=O)NC(=N)N[C@H]2C=C(C(=O)O)O[C@@H]([C@H](O)[C@H](O)CO)[C@@H]2NC(C)=O)cc(OC)c1OC | 239 nM | – |
| CC(=O)N[C@H]1[C@H]([C@H](O)[C@H](O)CO)OC(C(=O)O)=C[C@@H]1NC(=N)NC(=O)Cc1ccc2ccccc2c1 | 55 nM | – |
| CC(=O)N[C@H]1[C@H]([C@H](O)[C@H](O)CO)OC(C(=O)O)=C[C@@H]1NC(=N)NC(=O)c1ccc([N+](=O)[O-])cc1 | 152 nM | – |
| COc1ccccc1CCC(=O)NC(=N)N[C@H]1C=C(C(=O)O)O[C@@H]([C@H](O)[C@H](O)CO)[C@@H]1NC(C)=O | 196 nM | – |
| CC(=O)N[C@H]1[C@H]([C@H](O)[C@H](O)CO)OC(C(=O)O)=C[C@@H]1NC(=N)NC(=O)CC12CC3CC(CC(C3)C1)C2 | 275 nM | – |
| CC(=O)N[C@H]1[C@H]([C@H](O)[C@H](O)CO)OC(C(=O)O)=C[C@@H]1NC(=N)NC(=O)CC(C)CCC=C(C)C (stereo not given in full) | 541 nM | – |
| CC(=O)N[C@H]1[C@H]([C@H](O)[C@H](O)CO)OC(C(=O)O)=C[C@@H]1NC(=N)NC(=O)CCc1ccccc1C(F)(F)F | 332 nM | – |
| CC(=O)N[C@H]1[C@H]([C@H](O)[C@H](O)CO)OC(C(=O)O)=C[C@@H]1NC(=N)NC(=O)CCc1ccc2ccccc2c1 | 74.8 nM | – |
| CC(=O)N[C@H]1[C@H]([C@H](O)[C@H](O)CO)OC(C(=O)O)=C[C@@H]1NC(=N)NC(=O)CCCCC1CCCCC1 | 260 nM | – |
| CC(=O)N[C@H]1[C@H]([C@H](O)[C@H](O)CO)OC(C(=O)O)=C[C@@H]1NC(=N)NCCSc1ccccc1 | 39400 nM | – |
| CC(=O)N[C@H]1[C@H]([C@H](O)[C@H](O)CO)OC(C(=O)O)=C[C@@H]1NC(=N)NC(=O)CCc1ccccc1 | 203 nM | – |
| CC(=O)N[C@H]1[C@H]([C@H](O)[C@H](O)CO)OC(C(=O)O)=C[C@@H]1NC(=N)NC(=O)CCc1ccc(N)cc1 | 176 nM | – |
| CCC(C)C(=O)NC(=N)N[C@H]1C=C(C(=O)O)O[C@@H]([C@H](O)[C@H](O)CO)[C@@H]1NC(C)=O (stereo not given in full) | 774 nM | – |
| CC(=O)N[C@H]1[C@H]([C@H](O)[C@H](O)CO)OC(C(=O)O)=C[C@@H]1NC(=N)NC(=O)CCCc1ccc(N)cc1 | 421 nM | – |
| CC(=O)N[C@H]1[C@H]([C@H](O)[C@H](O)CO)OC(C(=O)O)=C[C@@H]1NC(=N)NC(=O)CCCCCc1ccccc1 | 233 nM | – |

| SMILES | IC50 (Influenza A virus; read-out: pIC50 (converted)) | further results |
| --- | --- | --- |
| CC(=O)N[C@H]1[C@H]([C@H](O)[C@H](O)CO)OC(C(=O)O)=C[C@@H]1NC(=N)NC(=O)CCC1CCOC1 (stereo not given in full) | 1200 nM | – |
| COc1ccccc1CC(=O)NC(=N)N[C@H]1C=C(C(=O)O)O[C@@H]([C@H](O)[C@H](O)CO)[C@@H]1NC(C)=O | 209 nM | – |
| CC(=O)N[C@H]1[C@H]([C@H](O)[C@H](O)CO)OC(C(=O)O)=C[C@@H]1NC(=N)NC(=O)CSc1ccccc1 | 189 nM | – |
| CC(=O)N[C@H]1[C@H]([C@H](O)[C@H](O)CO)OC(C(=O)O)=C[C@@H]1NC(=N)NC(=O)/C=C/c1cc(F)cc(F)c1 | 166 nM | – |
| CC(=O)N[C@H]1[C@H]([C@H](O)[C@H](O)CO)OC(C(=O)O)=C[C@@H]1NC(=N)NC(=O)CCc1ccccc1Br | 134 nM | – |
| CC(=O)N[C@H]1[C@H]([C@H](O)[C@H](O)CO)OC(C(=O)O)=C[C@@H]1NC(=N)NC(=O)Cc1ccccc1 | 46 nM | – |
| CC(=O)N[C@H]1[C@H]([C@H](O)[C@H](O)CO)OC(C(=O)O)=C[C@@H]1NC(=N)NC(=O)Cc1cccc2ccccc12 | 98.4 nM | – |
| CC(=O)N[C@H]1[C@H]([C@H](O)[C@H](O)CO)OC(C(=O)O)=C[C@@H]1NC(=N)NC(=O)CCc1ccccc1C | 462 nM | – |
| CC(=O)N[C@H]1[C@H]([C@H](O)[C@H](O)CO)OC(C(=O)O)=C[C@@H]1NC(=N)NC(=O)CCCOc1ccccc1 | 397 nM | – |
| CC(=O)N[C@H]1[C@H]([C@H](O)[C@H](O)CO)OC(C(=O)O)=C[C@@H]1NC(=N)NC(=O)CCCCCCCCCCOc1ccccc1 | 203 nM | – |
| CC(=O)N[C@H]1[C@H]([C@H](O)[C@H](O)CO)OC(C(=O)O)=C[C@@H]1NC(=N)NC(=O)Cc1ccc(F)cc1 | – | IC50 (Influenza A virus; read-out: IC50): 670 nM; IC50 [1]: 35.4 µM; selectivity ratio [2]: > 149; CC50 at 72 h [3]: > 100 µM |
| CC(=O)N[C@H]1[C@H]([C@H](O)[C@H](O)CO)OC(C(=O)O)=C[C@@H]1NC(=N)NCCc1ccc2ccccc2c1 | 34700 nM | – |
| CC(=O)N[C@H]1[C@H]([C@H](O)[C@H](O)CO)OC(C(=O)O)=C[C@@H]1NC(=N)NC(=O)CCOc1ccccc1 | 180 nM | – |
| CC(=O)N[C@@H]1C(NC(=N)NC(=O)c2ccc(-c3ccc(O)cc3)cc2)C=C(C(=O)O)O[C@H]1[C@H](O)C(O)CO (single isomer, unassigned) | – | IC50 (Influenza A virus; read-out: IC50): 6950 nM; IC50 [1]: 97.5 µM; selectivity ratio [2]: > 14; CC50 at 72 h [3]: > 100 µM |
| CC(=O)N[C@H]1[C@H]([C@H](O)[C@H](O)CO)OC(C(=O)O)=C[C@@H]1NC(=N)N [ZANAMIVIR] | – | IC50 (Influenza A virus; read-out: IC50): 873 nM; IC50 [1]: 130 µM; selectivity ratio [2]: > 115; CC50 at 72 h [3]: > 100 µM |
